From patent US20180311199A1, “COMBINATION TREATMENT FOR INFLAMMATORY DISEASES” (priority 2016, published 2018)

Tests used:
[1] = test system: IL-6, IL-19, G-CSF, S100AB, and NAP-2; test: ELISA of cytokine proteins in culture supernatant of M5-treated primary human keratinocytes (psoriasis cell culture model); format: cell-based; settings: of five gene products (IL-6, IL-19, G-CSF, S100AB, NAP-2), primary human keratinocytes + M5, 24 hours, diacerein 10 μM, infliximab 5 μg/ml
Method: Experiments were carried out to investigate the effect of combined anti-TNF-α (infliximab) and diacerein, an inhibitor for a pro-inflammatory cytokine interleukin-1, utilizing an in vivo-equivalent psoriasis cell culture system. This in vivo-equivalent model is generated by using a group of 5 different natural chemicals (M5: IL-17A, IL-22, Oncostatin-M, IL-1α, and TNF-α) on human epidermal cells keratinocytes, recapitulating the in vivo immune dysregulation as identified in vivo in the skin lesions of patients affected by psoriasis (Guilloteau et al., Skin Inflammation Induced by the Synergistic Action of IL-17A, IL-22, Oncostatin M, IL-1α, and TNF-α Recapitulates Some Features of Psoriasis. Journal of Immunology 2010; 184:5263-70). […]
After 24 hours of incubation, the culture media (supernatant) of the above 5 groups were collected and stored at −20° C. for ELISA experiments as the following: 50-100 μl of cell culture supernatant were assayed with commercially available ELISA kits for human cytokines according to the manufacturers' instructions (IL-6, IL-19, G-CSF, S100AB, and NAP-2). The data we collected determined that infliximab alone (group 3), diacerein alone (group 4), and combined infliximab and diacerein (group 5) partially or completely reverse the dysregulation effect of the 5 natural chemicals (M5) in five, three, and five genes, respectively. […]

[2] = test system: pro-inflammatory genes regulated by M5; test: Inflammatory Response and Autoimmune PCR Array on RNA of M5-treated primary human keratinocytes; format: cell-based; settings: diacerein 10 μM, infliximab 5 μg/ml; for number of genes in which the greatest effect was seen: of 48 genes partially or fully reversed by all three groups, keratinocytes + M5, 24 hours; for number of genes on which the effect of the five cytokines was partially or fully reversed: of 81 pro-inflammatory genes significantly (p<0.05) regulated at least 2-fold by M5, keratinocytes, 24 hours
Method: Experiments were carried out to investigate the effect of combined anti-TNF-α (infliximab) and diacerein, an inhibitor for a pro-inflammatory cytokine interleukin-1, utilizing an in vivo-equivalent psoriasis cell culture system. This in vivo-equivalent model is generated by using a group of 5 different natural chemicals (M5: IL-17A, IL-22, Oncostatin-M, IL-1α, and TNF-α) on human epidermal cells keratinocytes, recapitulating the in vivo immune dysregulation as identified in vivo in the skin lesions of patients affected by psoriasis (Guilloteau et al., Skin Inflammation Induced by the Synergistic Action of IL-17A, IL-22, Oncostatin M, IL-1α, and TNF-α Recapitulates Some Features of Psoriasis. Journal of Immunology 2010; 184:5263-70). Thus, this in vivo-equivalent model provides an excellent tool for the investigation of the combined effect of anti-TNF-α and diacerein on psoriasis.
The experiments were carried out in the following manner: Primary human keratinocytes (purchased from Invitrogen, Carlsbad, Calif.) Epilife culture medium supplemented with human keratinocyte growth supplement (Invitrogen) in standard humidified chamber (37° C., 5% CO2). When the cells reached 80% confluency, cells were divided into 5 groups for treatment: • 1). Cell culture medium alone, serving as a negative control • 2). Cell culture medium plus 5 natural chemicals (M5) • 3). Cell culture medium plus 5 natural chemicals (M5) and anti-TNF-alpha (infliximab) • 4). Cell culture medium plus 5 natural chemicals (M5) and diacerein • 5). Cell culture medium plus 5 natural chemicals (M5), anti-TNF-alpha (infliximab) and diacerein.
The above 5 groups were incubated at 37° C. for 24 hours.
The concentrations and commercial sources of the experiment components are: • IL-17 alpha (10 ng/ml, Life Technologies, Frederick, Md.) • IL-22 (10 ng/ml. Life Technologies, Frederick, Md.) • Oncostatin-M (10 ng/ml, Life Technologies, Frederick, Md.) • IL-1 alpha (10 ng/ml, Life Technologies, Frederick, Md.) • TNF-alpha ([…], Life Technologies, Frederick, Md.) • Diacerein (10 μM, Sigma Aldrich, Saint Louis, Md.) • Infliximab (Remicade®, an anti-TNF-alpha, 5 μg/ml, Jansen Biotech, Horsham, Pa.)
After 24 hours of incubation, the cultured cells were washed three times with sterile PBS (phosphate-buffered saline) and the RNAs were harvested with Trizol (Invitrogen) and the purity (A260/A280 ratio>1.8) was confirmed. Reverse transcription was performed with 1 micro gram RNA using first strand kit from Invitrogen according to manufacturer's instruction. 10 μl of mastermix (Qiagen, Valencia, Calif.) with the reversely transcribed cDNA were amplified using a real-time PCR machine (ViiA7 PCR, Applied Biosystems, Waltham, Pa.). Statistical analysis was performed with web-based Software. […]

Row | Compound | number of genes in which the dysregulation effect of the 5 natural chemicals (M5) is partially or completely reversed [1] | number of genes in which the greatest effect was seen [2] | number of genes on which the effect of the five cytokines was partially or fully reversed [2]
1 | infliximab | five | 10 genes | 67 genes
2 | CC(=O)Oc1cccc2c1C(=O)c1c(OC(C)=O)cc(C(=O)O)cc1C2=O [diacerein] | three | 17 genes | 61 genes
